Source: patent publication US20240067693A1, “POLYPEPTIDES AND USES THEREOF” (MEDIMMUNE LIMITED, priority 2020, published 2024)
Numbered stars: 1 amine (or outer) side, 2 acyl side, 3 side chain; on linkers, the order of the positions; unused ones are H or OH. Bridge positions count the residues as written; N and C are the ends. Square brackets hold non-standard residues; d marks the D form. Side chains are listed from the residue outwards. Peptide text beside a SMILES is read from it. * marks the point of attachment. C18 diacid = O=C(O)CCCCCCCCCCCCCCCCC(=O)*; γGlu = O=C(O)[C@H](CCC(=O)[*:2])N[*:1]; αMeF = C[C@](N)(Cc1ccccc1)C(=O)O; Aib = CC(C)(N)C(=O)O

What was measured:
[1] = Thioflavin T fibrillation assay; type: physicochemical; conditions: ThT fibrillation assay; peptide 1 mg/mL in 25 mM sodium acetate buffer pH 4.0; 6 days at 37 °C with shaking; >144 h = no increase
Outline: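 Peptides at 1 mg/mL in 25 mM sodium acetate pH 4.0 with ThT (from 0.25 mM stock), incubated 6 days at 37 °C with intermittent orbital shaking at 500–750 rpm. Fluorescence (ex 444/em 480 nm) read every 30 min; value is average time to a rise in baseline-corrected signal.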

[2] = target: T1, human amylin receptor (calcitonin receptor co-expressed with receptor activity modifying protein, RAMP3) (hAMYR3) (Homo sapiens, UniProt O60896+P30988); assay: cAMP production in 1321N1 cells with stable recombinant expression of human amylin receptor (hAMYR3); type: cell-based; conditions: for Ratio (selectivity hAMYR vs hCTR, ratio of EC50 values at the two receptors): EC50 hCTR / EC50 hAMYR3; for EC50: cAMP, 1321N1 cells, assay buffer with 0.1% BSA, read-out: EC50 (pM) hAMYR3
T1 construct: expressed in transfected cells
T1 sequence (P30988 25-474): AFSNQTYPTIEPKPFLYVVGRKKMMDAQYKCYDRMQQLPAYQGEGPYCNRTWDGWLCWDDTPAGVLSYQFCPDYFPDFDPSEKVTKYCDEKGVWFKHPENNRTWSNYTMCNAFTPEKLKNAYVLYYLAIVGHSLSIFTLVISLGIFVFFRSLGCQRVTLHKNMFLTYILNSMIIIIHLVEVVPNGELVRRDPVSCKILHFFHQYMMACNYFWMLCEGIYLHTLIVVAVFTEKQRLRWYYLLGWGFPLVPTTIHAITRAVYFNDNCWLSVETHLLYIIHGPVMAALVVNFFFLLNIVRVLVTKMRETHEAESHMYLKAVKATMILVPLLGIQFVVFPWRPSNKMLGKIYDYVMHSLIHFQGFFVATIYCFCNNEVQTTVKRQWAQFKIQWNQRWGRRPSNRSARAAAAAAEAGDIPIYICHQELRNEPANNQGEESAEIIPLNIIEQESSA
T1 sequence (O60896 24-148 partner): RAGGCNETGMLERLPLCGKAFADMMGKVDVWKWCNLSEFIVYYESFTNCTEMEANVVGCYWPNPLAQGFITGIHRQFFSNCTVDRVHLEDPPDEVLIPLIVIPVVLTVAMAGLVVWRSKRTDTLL
Outline: (§1)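 Thawed cells in HBSS/0.1% BSA/25 mM HEPES pH 7.4 with 0.5 mM IBMX were incubated with peptides 30 min at room temperature; cAMP read by HTRF. EC50 from 4-parameter fit of % activation relative to maximal amylin or calcitonin effect.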

[3] = Pharmacokinetic determination via IV and SC administration in Sprague Dawley rats; conditions: male, rat, plasma, 20 nmol/kg
Protocol: PK studies were performed to determine the half-life (T1/2) of test peptides. T1/2 describes the time taken for the maximum plasma concentration (Cmax) of a test substance to halve its steady-state concentration when in circulation.
Male SD rats were purchased from Si Bei Fu Laboratory Animal Technology Co. Ltd (China). The animals were 6-8 weeks old with body weights of 200-300 g on the dosing date. The animals were housed in a 12-hour light/12-hour dark cycle environment and were fasted overnight before dosing. The body weight of the animals were recorded before dosing, 24 h and 48 h post dosing . Animals had free access to food and drinks, and the food consumption was quantified every day.
Test articles were administered at 20 nmol/kg. Blood samples were collected from each animal via Jugular vein.
The blood samples were transferred into eppendorf low binding tube containing K2 EDTA. Above 0.150 mL blood were collected at each time point. Blood samples were centrifuged at 4,000 g for 5 minutes at 4° C. to obtain plasma. The plasma samples were stored frozen at −75±15° C. until analysis.
Concentrations of the test articles in the plasma samples were analyzed using a LC-MS/MS method. Data acquisition was performed by LabSolution version 5.89 software (Shimadzu, Kyoto, Japan). Data statistics were performed using Excel 97-2003 software. The pharmacokinetic parameters of test articles were calculated using a non-compartmental approach with Phoenix™ VVinNonlin® 6.1.
The following pharmacokinetic parameters were calculated, whenever possible from the plasma concentration versus time data: • IV administration: T1/2, C0, AUClast, AUCinf, MRTinf, Cl, Vss, Number of Points for Regression. • SC administration: Tmax, Cmax, AUClast, AUCinf, MRTinf, F, Number of Points for Regression.

[4] = target: T2, human calcitonin receptor (hCTR) (Homo sapiens, UniProt P30988); assay: cAMP production in 1321N1 cells with stable recombinant expression of human calcitonin receptor (hCTR); type: cell-based; conditions: cAMP, 1321N1 cells, assay buffer with 0.1% BSA; read-out: EC50 (pM) hCTR
T2 construct: expressed in transfected cells
T2 sequence (P30988 25-474): T1 sequence (P30988 25-474)
Outline: as §1

Time taken to detect increase in fluorescence intensity [1] | Ratio (selectivity hAMYR vs hCTR, ratio of EC50 values at the two receptors) [2] | EC50 [2] | half-life ([3]; iv) | half-life ([3]; sc) | EC50 [4] | Compound
>144 h | 15 | 278 pM | 6.6 h | 9.3 h | 4040 pM | CC[C@H](C)[C@H](NC(=O)[C@@H]1CCCN1C(=O)CNC(=O)[C@](C)(Cc1ccccc1)NC(=O)[C@H](CC(N)=O)NC(=O)[C@H](CC(N)=O)NC(=O)[C@H](CO)NC(=O)[C@H](CO)NC(=O)[C@H](Cc1c[nH]cn1)NC(=O)[C@H](CCCNC(=N)N)NC(=O)[C@H](CC(C)C)NC(=O)[C@H](Cc1ccccc1)NC(=O)[C@H](CC(N)=O)NC(=O)[C@H](C)NC(=O)[C@H](CC(C)C)NC(=O)[C@H](CCCNC(=N)N)NC(=O)[C@H](CCC(N)=O)NC(=O)[C@@H](NC(=O)[C@H](C)NC(=O)[C@@H]1CSSC[C@H](NC(=O)[C@@H](N)CCCCNC(=O)CC[C@H](NC(=O)CCCCCCCCCCCCCCCCC(=O)O)C(=O)O)C(=O)N[C@@H](CC(N)=O)C(=O)N[C@@H]([C@@H](C)O)C(=O)N[C@@H](C)C(=O)N[C@@H]([C@@H](C)O)C(=O)N1)[C@@H](C)O)C(=O)N[C@@H](CC(C)C)C(=O)N1CCC[C@H]1C(=O)N1CCC[C@H]1C(=O)N[C@H](C(=O)N[C@@H](CC(N)=O)C(=O)N[C@H](C(=O)NCC(=O)N[C@@H](CO)C(=O)N[C@@H](CC(N)=O)C(=O)N[C@H](C(=O)N[C@@H](Cc1ccc(O)cc1)C(N)=O)[C@@H](C)O)C(C)C)[C@@H](C)O [Peptide 19, K(γE-C18diacid)[CNTATC]ATQRLANFLRHSSNN(αMePhe)GPILPPTNVGSNTY-amide] (H-K([γGlu-C18 diacid])CNTATCATQRLANFLRHSSNN[αMeF]GPILPPTNVGSNTY-NH2; disulfide 2-7; N-terminus assumed)
– | 31 | 207 pM | 6 h | 9.3 h | 6400 pM | CC[C@H](C)[C@H](NC(=O)[C@@H]1CCCN1C(=O)CNC(=O)[C@H](Cc1ccccc1)NC(=O)[C@H](CC(N)=O)NC(=O)C(C)(C)NC(=O)[C@H](CO)NC(=O)[C@H](CO)NC(=O)[C@H](Cc1c[nH]cn1)NC(=O)[C@H](CCCNC(=N)N)NC(=O)[C@H](CC(C)C)NC(=O)[C@H](Cc1ccccc1)NC(=O)[C@H](CC(N)=O)NC(=O)[C@H](C)NC(=O)[C@H](CC(C)C)NC(=O)[C@H](CCCNC(=N)N)NC(=O)[C@H](CCC(N)=O)NC(=O)[C@@H](NC(=O)[C@H](C)NC(=O)[C@@H]1CSSC[C@H](NC(=O)[C@H](CCCCN)NC(=O)[C@@H](N)CCCCNC(=O)CC[C@H](NC(=O)CCCCCCCCCCCCCCCCC(=O)O)C(=O)O)C(=O)N[C@@H](CC(N)=O)C(=O)N[C@@H]([C@@H](C)O)C(=O)N[C@@H](C)C(=O)N[C@@H]([C@@H](C)O)C(=O)N1)[C@@H](C)O)C(=O)N[C@@H](CC(C)C)C(=O)N1CCC[C@H]1C(=O)N1CCC[C@H]1C(=O)N[C@H](C(=O)N[C@@H](CC(N)=O)C(=O)N[C@H](C(=O)NCC(=O)N[C@@H](CO)C(=O)N[C@@H](CC(N)=O)C(=O)N[C@H](C(=O)N[C@@H](Cc1ccc(O)cc1)C(N)=O)[C@@H](C)O)C(C)C)[C@@H](C)O [Peptide 65, K(γE-C18diacid)K[CNTATC]ATQRLANFLRHSS(Aib)NFGPILPPTNVGSNTY-amide] (H-K([γGlu-C18 diacid])KCNTATCATQRLANFLRHSS[Aib]NFGPILPPTNVGSNTY-NH2; disulfide 3-8)
>144 h | 17 | 418 pM | 9.4 h | 12.2 h | 7010 pM | CC[C@H](C)[C@H](NC(=O)[C@@H]1CCCN1C(=O)CNC(=O)[C@H](Cc1ccccc1)NC(=O)[C@H](CC(N)=O)NC(=O)C(C)(C)NC(=O)[C@H](CO)NC(=O)[C@H](CO)NC(=O)[C@H](Cc1c[nH]cn1)NC(=O)[C@H](CCCNC(=N)N)NC(=O)[C@H](CC(C)C)NC(=O)[C@H](Cc1ccccc1)NC(=O)[C@H](CC(N)=O)NC(=O)[C@H](C)NC(=O)[C@H](CC(C)C)NC(=O)[C@H](CCCNC(=N)N)NC(=O)[C@H](CCC(N)=O)NC(=O)[C@@H](NC(=O)[C@H](C)NC(=O)[C@@H]1CSSC[C@H](NC(=O)[C@H](CCCCN)NC(=O)[C@@H](N)CCCCNC(=O)CC[C@H](NC(=O)CC[C@H](NC(=O)CCCCCCCCCCCCCCCCC(=O)O)C(=O)O)C(=O)O)C(=O)N[C@@H](CC(N)=O)C(=O)N[C@@H]([C@@H](C)O)C(=O)N[C@@H](C)C(=O)N[C@@H]([C@@H](C)O)C(=O)N1)[C@@H](C)O)C(=O)N[C@@H](CC(C)C)C(=O)N1CCC[C@H]1C(=O)N1CCC[C@H]1C(=O)N[C@H](C(=O)N[C@@H](CC(N)=O)C(=O)N[C@H](C(=O)NCC(=O)N[C@@H](CO)C(=O)N[C@@H](CC(N)=O)C(=O)N[C@H](C(=O)N[C@@H](Cc1ccc(O)cc1)C(N)=O)[C@@H](C)O)C(C)C)[C@@H](C)O [Peptide 66, K(γE-γE-C18diacid)K[CNTATC]ATQRLANFLRHSS(Aib)NFGPILPPTNVGSNTY-amide] (H-K([γGlu-γGlu-C18 diacid])KCNTATCATQRLANFLRHSS[Aib]NFGPILPPTNVGSNTY-NH2; disulfide 3-8)
– | 11.9 | 329 pM | 7.7 h | 8.9 h | 3930 pM | CC[C@H](C)[C@H](NC(=O)[C@@H]1CCCN1C(=O)CNC(=O)[C@H](Cc1ccccc1)NC(=O)[C@H](CC(N)=O)NC(=O)[C@H](CC(N)=O)NC(=O)[C@H](CO)NC(=O)[C@H](CO)NC(=O)[C@H](Cc1c[nH]cn1)NC(=O)C(C)(C)NC(=O)[C@H](CC(C)C)NC(=O)[C@H](Cc1ccccc1)NC(=O)[C@H](CC(N)=O)NC(=O)[C@H](C)NC(=O)[C@H](CC(C)C)NC(=O)[C@H](CCCNC(=N)N)NC(=O)[C@H](CCC(N)=O)NC(=O)[C@@H](NC(=O)[C@H](C)NC(=O)[C@@H]1CSSC[C@H](NC(=O)[C@@H](N)CCCCNC(=O)CC[C@H](NC(=O)CCCCCCCCCCCCCCCCC(=O)O)C(=O)O)C(=O)N[C@@H](CC(N)=O)C(=O)N[C@@H]([C@@H](C)O)C(=O)N[C@@H](C)C(=O)N[C@@H]([C@@H](C)O)C(=O)N1)[C@@H](C)O)C(=O)N[C@@H](CC(C)C)C(=O)N1CCC[C@H]1C(=O)N1CCC[C@H]1C(=O)N[C@H](C(=O)N[C@@H](CCCNC(=N)N)C(=O)N[C@H](C(=O)NCC(=O)N[C@@H](CO)C(=O)N[C@@H](CC(N)=O)C(=O)N[C@H](C(=O)N[C@@H](Cc1ccc(O)cc1)C(N)=O)[C@@H](C)O)C(C)C)[C@@H](C)O [Peptide 155] (H-K([γGlu-C18 diacid])CNTATCATQRLANFL[Aib]HSSNNFGPILPPTRVGSNTY-NH2; disulfide 2-7; N-terminus assumed)
